From patent US9695155B2, “Herbicidal substituted pyrimidinyloxy benzene compounds” (E. I. DU PONT DE NEMOURS AND COMPANY, priority 2013, dated 2017)

Columns and labels:
soybean = experiment: Test C postemergence; type: in vivo, Glycine max
In short: (§1)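 Seeds were sown in loam–sand blend and sprayed preemergence, while plants at 1- to 4-leaf stage (2–18 cm) in peat-based medium received postemergence sprays; test chemicals were formulated in a non-phytotoxic solvent with surfactant. After 13–15 days in a greenhouse, injury was rated visually against controls, 0 (no effect) to 100 (complete control).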

giant foxtail [1] = experiment: Test A postemergence; type: in vivo, Setaria faberii; settings: 0 to 100 scale where 0 is no effect and 100 is complete control
In short: (§2)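 Visual 0–100 rating (100 = complete control) taken about 10 d post-treatment relative to untreated checks. Preemergence: directed soil spray on sown loam/sand pots. Postemergence: seedlings 2–10 cm, 1–2 leaf. Non-phytotoxic solvent formulation with surfactant.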

velvetleaf [2] = experiment: Test A preemergence; type: in vivo, Abutilon theophrasti
In short: as §2

large (Lg) crabgrass [3] = experiment: Test A preemergence; type: in vivo, Digitaria sanguinalis; settings: for Plant response rating, Crabgrass, Large: 125 g ai/ha; for Crabgrass, Large plant response rating: 500 g ai/ha
In short: as §2

ragweed = experiment: Test C postemergence; type: in vivo, Ambrosia elatior
In short: as §1

velvetleaf [4] = experiment: Test C postemergence; type: in vivo, Abutilon theophrasti
In short: as §1

wheat, winter = experiment: Test C postemergence; type: in vivo, Triticum aestivum
In short: as §1

pigweed [5] = experiment: Test A preemergence; type: in vivo, Amaranthus retroflexus; settings: for Pigweed plant response rating: 500 g ai/ha
In short: as §2

chickweed = experiment: Test C postemergence; type: in vivo, Stellaria media; settings: for Chickweed plant response rating / Plant response rating, Chickweed: scale 0 to 100 (0 no effect, 100 complete control)
In short: as §1

pigweed [6] = experiment: Test A postemergence; type: in vivo, Amaranthus retroflexus; settings: 0 to 100 scale where 0 is no effect and 100 is complete control; for Plant response rating, Pigweed: 500 g ai/ha
In short: as §2

giant foxtail [7] = experiment: Test A preemergence; type: in vivo, Setaria faberii; settings: for Plant response rating, Foxtail, Giant: 125 g ai/ha; for Foxtail, Giant plant response rating: 500 g ai/ha
In short: as §2

velvetleaf [8] = experiment: Test A postemergence; type: in vivo, Abutilon theophrasti; settings: 0 to 100 scale where 0 is no effect and 100 is complete control; for Plant response rating, Velvetleaf: 500 g ai/ha
In short: as §2

wild oat = experiment: Test C postemergence; type: in vivo, Avena fatua
In short: as §1

giant foxtail [9] = experiment: Test C postemergence; type: in vivo, Setaria faberii; settings: for Foxtail, Giant plant response rating / Plant response rating, Foxtail, Giant: scale 0 to 100 (0 no effect, 100 complete control)
In short: as §1

large (Lg) crabgrass [10] = experiment: Test A postemergence; type: in vivo, Digitaria sanguinalis; settings: 0 to 100 scale where 0 is no effect and 100 is complete control
In short: as §2

[11] = Postemergence, 31 g ai/ha, scale 0 to 100 (0 no effect, 100 complete control), 13 to 15 days
[12] = Postemergence, 62 g ai/ha, scale 0 to 100 (0 no effect, 100 complete control)
[13] = 125 g ai/ha, 0 to 100 scale where 0 is no effect and 100 is complete control
[14] = 0 to 100 scale where 0 is no effect and 100 is complete control
[15] = 0 to 100 scale, 0 no effect, 100 complete control, approx. 10 days
[16] = 16 g ai/ha, postemergence, visual rating, 13 to 15 days
[17] = Postemergence, 31 g ai/ha, 13 to 15 days
[18] = 16 g ai/ha, postemergence, 0 is no effect, 100 is complete control
[19] = 31 g ai/ha, postemergence, visual rating, scale 0 to 100 (0 no effect, 100 complete control), 13 to 15 days
[20] = 125 g ai/ha, postemergence, visual rating, scale 0 to 100 (0 no effect, 100 complete control)
[21] = 31 g ai/ha, postemergence, visual rating, 13 to 15 days
[22] = 125 g ai/ha, postemergence, visual rating

With `FC(F)Oc1cnn(-c2ccccc2Oc2ncc(Cl)cn2)c1` [Compound 98] the “Plant response rating (0 to 100), Soybean” value (soybean; 125 g ai/ha, postemergence) was 90, the “Plant response rating, Soybean” value (soybean; [11]) was 40 and the “Plant response rating, Soybean” value (soybean; [12]) was 60. The “Plant response rating, Foxtail, Giant” value (giant foxtail [1]; 125 g ai/ha) was 80, the “Plant response rating, Foxtail, Giant” value (giant foxtail [1]; 500 g ai/ha) was 90 and the “Plant response rating, Velvetleaf” value (velvetleaf [2]; [13]) was 90. For the same compound, the “Plant response rating, Crabgrass, Large” value (large (Lg) crabgrass [3]; [14]) was 100, the “Crabgrass, Large plant response rating” value (large (Lg) crabgrass [3]; [15]) was 100 and the “Plant response rating (0 to 100), Ragweed” value (ragweed; 125 g ai/ha, postemergence) was 40. For the same compound, the “Plant response rating, Ragweed” value (ragweed; [11]) was 10, the “Plant response rating, Ragweed” value (ragweed; [12]) was 30 and the “Plant response rating (0 to 100), Velvetleaf” value (velvetleaf [4]; 125 g ai/ha, postemergence) was 90. The “Plant response rating, Velvetleaf” value (velvetleaf [4]; [11]) was 50, the “Plant response rating, Velvetleaf” value (velvetleaf [4]; [12]) was 70 and the “Plant response rating (0 to 100), Wheat” value (wheat, winter; 125 g ai/ha, postemergence) was 10. The “Plant response rating, Wheat” value (wheat, winter; [11]) was 0, the “Plant response rating, Wheat” value (wheat, winter; [12]) was 5 and the “Plant response rating, Pigweed” value (pigweed [5]; [13]) was 100. For the same compound, the “Pigweed plant response rating” value (pigweed [5]; [15]) was 100, the “Chickweed plant response rating” value (chickweed; [16]) was 30 and the “Plant response rating (0 to 100), Chickweed” value (chickweed; 125 g ai/ha, postemergence) was 85. For the same compound, the “Plant response rating, Chickweed” value (chickweed; [17]) was 50, the “Plant response rating, Chickweed” value (chickweed; Postemergence, 62 g ai/ha) was 75 and the “Plant response rating, Pigweed” value (pigweed [6]) was 100. The “Plant response rating, Foxtail, Giant” value (giant foxtail [7]; [14]) was 100, the “Foxtail, Giant plant response rating” value (giant foxtail [7]; [15]) was 100 and the “Plant response rating, Velvetleaf” value (velvetleaf [8]) was 100. The “Plant response rating (0 to 100), Oat, Wild” value (wild oat; 125 g ai/ha, postemergence) was 20, the “Plant response rating, Oat, Wild” value (wild oat; [11]) was 5 and the “Plant response rating, Oat, Wild” value (wild oat; [12]) was 10. The “Foxtail, Giant plant response rating” value (giant foxtail [9]; [16]) was 5, the “Plant response rating (0 to 100), Foxtail, Giant” value (giant foxtail [9]; 125 g ai/ha, postemergence) was 10 and the “Plant response rating, Foxtail, Giant” value (giant foxtail [9]; [17]) was 5. The “Plant response rating, Foxtail, Giant” value (giant foxtail [9]; Postemergence, 62 g ai/ha) was 5, the “Plant response rating, Crabgrass, Large” value (large (Lg) crabgrass [10]; 125 g ai/ha) was 80 and the “Plant response rating, Crabgrass, Large” value (large (Lg) crabgrass [10]; 500 g ai/ha) was 100.

`Fc1cnc(Oc2cccc(C(F)F)c2-n2cc(C(F)(F)F)cn2)nc1` [Compound 164] was tested, and the “Plant response rating (0 to 100), Soybean” value (soybean; [18]) was 40, the “Soybean plant response rating” value (soybean; [19]) was 35 and the “Plant response rating, Soybean” value (soybean; [20]) was 65. For the same compound, the “Plant response rating, Soybean” value (soybean; [12]) was 75, the “Foxtail, Giant plant response rating” value (giant foxtail [1]; 125 g ai/ha) was 90 and the “Plant response rating, Foxtail, Giant” value (giant foxtail [1]; 500 g ai/ha) was 100. For the same compound, the “Velvetleaf plant response rating (0 to 100 scale)” value (velvetleaf [2]; 125 g ai/ha) was 100, the “Velvetleaf plant response rating” value (velvetleaf [2]; 500 g ai/ha, 0 to 100 scale where 0 is no effect and 100 is complete control) was 100 and the “Plant response rating, Crabgrass, Large” value (large (Lg) crabgrass [3]; [14]) was 100. The “Crabgrass, Large plant response rating” value (large (Lg) crabgrass [3]; [14]) was 100, the “Plant response rating (0 to 100), Ragweed” value (ragweed; [18]) was 20 and the “Ragweed plant response rating” value (ragweed; [19]) was 15. For the same compound, the “Plant response rating, Ragweed” value (ragweed; [20]) was 55, the “Plant response rating, Ragweed” value (ragweed; [12]) was 60 and the “Velvetleaf plant response rating” value (velvetleaf [4]; [19]) was 15. The “Plant response rating, Velvetleaf” value (velvetleaf [4]; [20]) was 65, the “Plant response rating, Velvetleaf” value (velvetleaf [4]; [12]) was 40 and the “Plant response rating (0 to 100), Wheat” value (wheat, winter; [18]) was 0. For the same compound, the “Wheat plant response rating” value (wheat, winter; [19]) was 0, the “Plant response rating, Wheat” value (wheat, winter; [20]) was 0 and the “Plant response rating, Wheat” value (wheat, winter; [12]) was 0. For the same compound, the “Pigweed plant response rating (0 to 100 scale)” value (pigweed [5]; 125 g ai/ha) was 100, the “Pigweed plant response rating” value (pigweed [5]; [14]) was 100 and the “Plant response rating (0 to 100), Chickweed” value (chickweed; [18]) was 45. For the same compound, the “Chickweed plant response rating” value (chickweed; [21]) was 50, the “Plant response rating, Chickweed” value (chickweed; [22]) was 90 and the “Plant response rating, Chickweed” value (chickweed; Postemergence, 62 g ai/ha) was 80. The “Pigweed plant response rating” value (pigweed [6]; 125 g ai/ha) was 100, the “Plant response rating, Pigweed” value (pigweed [6]) was 100 and the “Plant response rating, Foxtail, Giant” value (giant foxtail [7]; [14]) was 90. The “Foxtail, Giant plant response rating” value (giant foxtail [7]; [14]) was 100, the “Velvetleaf plant response rating” value (velvetleaf [8]; 125 g ai/ha) was 100 and the “Plant response rating, Velvetleaf” value (velvetleaf [8]) was 100. The “Plant response rating (0 to 100), Oat, Wild” value (wild oat; [18]) was 0, the “Oat, Wild plant response rating” value (wild oat; [19]) was 5 and the “Plant response rating, Oat, Wild” value (wild oat; [20]) was 15. The “Plant response rating, Oat, Wild” value (wild oat; [12]) was 5, the “Plant response rating (0 to 100), Foxtail, Giant” value (giant foxtail [9]; [18]) was 0 and the “Foxtail, Giant plant response rating” value (giant foxtail [9]; [21]) was 20. The “Plant response rating, Foxtail, Giant” value (giant foxtail [9]; [22]) was 10, the “Plant response rating, Foxtail, Giant” value (giant foxtail [9]; Postemergence, 62 g ai/ha) was 10 and the “Crabgrass, Large plant response rating” value (large (Lg) crabgrass [10]; 125 g ai/ha) was 80. For the same compound, the “Plant response rating, Crabgrass, Large” value (large (Lg) crabgrass [10]; 500 g ai/ha) was 100.
